Measurements reported in ChEMBL document CHEMBL1145841, “Design and synthesis of poly ADP-ribose polymerase-1 inhibitors. 2. Biological evaluation of aza-5[H]-phenanthridin-6-ones as potent, aqueous-soluble compounds for the treatment of ischemic injuries” (J Med Chem, 2003).
pEC50, pIC50: −log10 of the molar value.

Assays:
P388 = assay: Effective concentration required to inhibit P388D1 cell death by 50%; type: functional, cell-based; conditions: Mus musculus
[1] = target: Poly [ADP-ribose] polymerase 1 (Homo sapiens, UniProt P09874); assay: Inhibitory activity against Poly (ADP-ribose) polymerase 1
Rattus norvegicus [2] = assay: Cerebral Ischemic stroke was expressed to determine the reduction in infarct volume at a dose of 80 mg/kg administered intraperitoneally in rats; type: functional; conditions: route intraperitoneal
[3] = Maximum concentration in brain of rats after intravenous administration; type: ADME, organism-based; set-up: route intravenous; conditions: rat
[4] = Maximum concentration in heart of rats after intravenous administration; type: ADME, organism-based; set-up: route intravenous; conditions: rat
[5] = Maximum concentration in plasma of rats after intravenous administration; type: ADME, organism-based; set-up: route intravenous; conditions: rat
Rattus norvegicus [6] = assay: Myocardial Ischemic stroke was expressed to determine the reduction in infarct volume at a dose of 40 mg/kg administered intravenously in rats; type: functional, Myocardium; conditions: route intravenous
Rattus norvegicus [7] = assay: Cerebral Ischemic stroke was expressed to determine the reduction in infarct volume at a dose of 80 mg/kg administered intravenously in rats; type: functional; conditions: route intravenous
Rattus norvegicus [8] = assay: Myocardial Ischemic stroke was expressed to determine the reduction in infarct volume at a dose of 20 mg/kg administered intravenously in rats; type: functional, Myocardium; conditions: route intravenous
Rattus norvegicus [9] = assay: Myocardial Ischemic stroke was expressed to determine the reduction in infarct volume at a dose of 80 mg/kg administered intravenously in rats; type: functional, Myocardium; conditions: route intravenous
Rattus norvegicus [10] = assay: Cerebral Ischemic stroke was expressed to determine the reduction in infarct volume at a dose of 40 mg/kg administered intraperitoneally in rats; type: functional; conditions: route intraperitoneal
Rattus norvegicus [11] = assay: Cerebral Ischemic stroke was expressed to determine the reduction in infarct volume at a dose of 20 mg/kg administered intravenously i in rats; type: functional; conditions: route intravenous
Rattus norvegicus [12] = assay: Cerebral Ischemic stroke was expressed to determine the reduction in infarct volume at a dose of 40 mg/kg administered intravenously i in rats; type: functional; conditions: route intravenous
Rattus norvegicus [13] = assay: Cerebral Ischemic stroke was expressed to determine the reduction in infarct volume at a dose of 40 mg/kg administered intravenously in rats; type: functional; conditions: route intravenous
Rattus norvegicus [14] = assay: Cerebral Ischemic stroke was expressed to determine the reduction in infarct volume at a dose of 80 mg/kg administered intravenously i in rats; type: functional; conditions: route intravenous

Chain of Poly [ADP-ribose] polymerase 1 (P09874 whole entry): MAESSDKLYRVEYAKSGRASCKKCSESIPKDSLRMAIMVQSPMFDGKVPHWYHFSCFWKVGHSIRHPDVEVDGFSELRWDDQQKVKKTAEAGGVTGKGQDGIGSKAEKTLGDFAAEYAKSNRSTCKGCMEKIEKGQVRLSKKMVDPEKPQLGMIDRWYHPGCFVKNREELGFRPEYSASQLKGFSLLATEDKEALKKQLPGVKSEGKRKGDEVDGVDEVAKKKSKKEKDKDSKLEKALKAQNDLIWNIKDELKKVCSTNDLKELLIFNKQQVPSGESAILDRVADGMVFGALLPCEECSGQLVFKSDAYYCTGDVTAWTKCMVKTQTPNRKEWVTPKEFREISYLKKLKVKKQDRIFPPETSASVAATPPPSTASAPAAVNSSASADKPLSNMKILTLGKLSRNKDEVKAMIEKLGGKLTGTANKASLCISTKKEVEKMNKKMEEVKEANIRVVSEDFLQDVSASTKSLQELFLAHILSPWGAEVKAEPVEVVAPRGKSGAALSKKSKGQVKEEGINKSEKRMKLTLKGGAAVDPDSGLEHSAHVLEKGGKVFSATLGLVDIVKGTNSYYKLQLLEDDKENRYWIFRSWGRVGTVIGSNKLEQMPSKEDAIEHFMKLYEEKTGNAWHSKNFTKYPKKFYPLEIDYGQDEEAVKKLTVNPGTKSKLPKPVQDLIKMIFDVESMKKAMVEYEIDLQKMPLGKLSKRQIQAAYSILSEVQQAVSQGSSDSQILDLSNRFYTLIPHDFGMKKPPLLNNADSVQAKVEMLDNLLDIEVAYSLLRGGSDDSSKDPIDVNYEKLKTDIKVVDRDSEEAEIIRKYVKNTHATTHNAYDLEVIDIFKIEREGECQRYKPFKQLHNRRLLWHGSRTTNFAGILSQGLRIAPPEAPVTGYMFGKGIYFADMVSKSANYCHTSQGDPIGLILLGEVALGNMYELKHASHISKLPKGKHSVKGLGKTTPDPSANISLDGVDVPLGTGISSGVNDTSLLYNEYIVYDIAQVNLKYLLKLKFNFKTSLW

## CN(C)CC(=O)Nc1ccc2nc(O)c3ccccc3c2n1
P388
  pEC50: 5.68

## O=c1[nH]c2cnccc2c2ccccc12
[1]
  pIC50: 6.77

## O=c1[nH]c2cccnc2c2ccccc12
Rattus norvegicus [2]
  Reduction: 55%

## CN1C[C@H]2C[C@@H]1CN2c1ccc2nc(O)c3ccccc3c2n1
P388
  pEC50: 6.62

## CS(=O)(=O)O.Oc1nc2ccc(N3CCN(CC4CC4)CC3)nc2c2ccccc12
[3]
  Cmax: 8850 ng/g
[4]
  Cmax: 7480 ng/g
[5]
  Cmax: 1950 ng/mL
P388
  pEC50: 6.84
[1]
  pIC50: 7.15
Rattus norvegicus [6]
  Reduction: 36%

## Oc1nc2ccc(N3C[C@H]4C[C@@H]3CN4)nc2c2ccccc12
[1]
  pIC50: 7.38

## Cl.O=C(CN1CCC(N2CCCC2)CC1)Nc1ccc2nc(O)c3ccccc3c2n1
[3]
  Cmax: 1440 ng/g
[4]
  Cmax: 38400 ng/g
[5]
  Cmax: 4790 ng/mL
P388
  pEC50: 5.90
Rattus norvegicus [7]
  Reduction: -1%
Rattus norvegicus [8]
  Reduction: 13%
Rattus norvegicus [6]
  Reduction: 39%
Rattus norvegicus [9]
  Reduction: 44%

## CN(C)CC(=O)Nc1cnc2c(c1)nc(O)c1ccccc12
P388
  pEC50: 5.58

## O=C(CN1CCCCC1)Nc1ccc2nc(O)c3ccccc3c2n1
P388
  pEC50: 5.95

## Nc1ccc2[nH]c(=O)c3ccccc3c2n1
[1]
  pIC50: 6.68

## NC(=O)c1ccccc1 [BENZAMIDE]
[1]
  pIC50: 4.70

## Oc1nc2ccncc2c2ccccc12
Rattus norvegicus [10]
  Reduction: 47%

## CCN(CC)CCNc1ccc2[nH]c(=O)c3ccccc3c2n1
[1]
  pIC50: 6.76

## CN1CCN(c2ccc3nc(O)c4ccccc4c3n2)CC1.CS(=O)(=O)O
[3]
  Cmax: 13700 ng/g
[4]
  Cmax: 2980 ng/g
[5]
  Cmax: 456 ng/mL
Rattus norvegicus [11]
  Reduction: 33%
Rattus norvegicus [12]
  Reduction: 18%
Rattus norvegicus [13]
  Reduction: 44%
Rattus norvegicus [14]
  Reduction: 35%
Rattus norvegicus [6]
  Reduction: 18.8%
Rattus norvegicus [9]
  Reduction: 25.5%

## CN(C)C1CCN(c2ccc3nc(O)c4ccccc4c3n2)CC1
P388
  pEC50: 6.87
[1]
  pIC50: 6.95

## CN1CCN(c2ccc3nc(O)c4ccccc4c3n2)CC1
P388
  pEC50: 6.90

## Oc1nc2ccc(N3CCC(N4CCCC4)CC3)nc2c2ccccc12
P388
  pEC50: 6.75

## CC(C)N1CCN(CC(=O)Nc2ccc3nc(O)c4ccccc4c3n2)CC1
[1]
  pIC50: 6.56

## CC(C)(C)OC(=O)N1C[C@H]2C[C@@H]1CN2c1ccc2[nH]c(=O)c3ccccc3c2n1
[1]
  pIC50: 6.11

## O=c1[nH]c2ccccc2c2ccccc12
[1]
  pIC50: 6.46
Rattus norvegicus [10]
  Reduction: -7%

## O=C(CN1CCC(N2CCCC2)CC1)Nc1cnc2c(c1)nc(O)c1ccccc12
P388
  pEC50: 5.94

## CS(=O)(=O)O.Oc1nc2ccc(N3CCNCC3)nc2c2ccccc12
[3]
  Cmax: 2180 ng/g
[4]
  Cmax: 20300 ng/g
[5]
  Cmax: 3790 ng/mL
P388
  pEC50: 6.82
[1]
  pIC50: 7.24

## C[N+]1([O-])CCN(c2ccc3nc(O)c4ccccc4c3n2)CC1
[5]
  Cmax: 10 ng/mL
P388
  pEC50: 5.24
